Measured values published in US9212204B2, “Treatment of rett syndrome using glycyl-L-2-methylprolyl-L-glutamic acid” (priority 2011, dated 2015).
Non-standard residues stand in square brackets, D forms with d. Residues, ends and D or L forms follow the SMILES beside them. αMeP = C[C@@]1(C(=O)O)CCCN1

Assays:
MeCP2 deficient mice = experiment: Survival of MeCP2 deficient mice after oral administration; assay type: in vivo, mouse; conditions: 20 or 80 mg/kg daily
Procedure: Therefore, we administer G-2-MePE orally to MeCP2 deficient mice as described in US 2009/0074865. Briefly, an aqueous solution, a water-in-oil emulsion (micro-emulsion, coarse emulsion or liquid crystal), or a gel composition containing a pharmaceutically effective amount of G-2-MePE (20 or 80 mg/kg per animal) is administered daily. In control MeCP2 deficient animals, we administer saline only, and wild-type animals are used to obtain baseline data similar to the design of studies described in Example 8 above.

MeCP2-/y mice [1] = experiment: Heart rate measurements; assay type: in vivo, mouse; conditions: 8 weeks old, treated from P15
Procedure: Real time cardiac pulse rate is measured using a tail clip sensor (Mouse OX Oximeter—Oakmont, Pa.). Mice are not anesthetized but physically restrained in a fitted open plastic tube. Prior to the recording session the tube is placed overnight in the cages housing the experimental animals to allow habituation. Body temperature is maintained at ˜82-84° F. throughout the recording time. We record 3 trials of 15 minutes for each mouse, mice are 8 weeks old and treated with vehicle or G-2-MePE from P15.
To examine heart rate abnormalities in MeCP2−/y mice and the effect of G-2-MePE treatment, we monitor real time cardiac pulse rate in non-anesthetized wild type and MeCP2−/y animals treated with vehicle or G-2-MePE.

[2] = test system: layer 5 pyramidal neurons in motor cortex of P28 knockout mice; experiment: Golgi staining, cortical spine density; assay type: in vivo, mouse; conditions: knockout with treatment
Procedure: Samples (<1 cm) from P28 mice are fixed in 10% formalin and 3% potassium bichromate for 24 hours. Tissue is then transferred into 2% silver nitrate for 2 days in the dark at room temperature. Sections from these samples are then cut at 50 μm thickness into distilled water. Sections corresponding to motor cortex are mounted onto slides, air dried for 10 minutes, and then dehydrated through sequential rinses of 95% alcohol, 100% alcohol, and xylene, and then sealed with a coverslip. Images re acquired at 10× (whole cell) and 100× (spine imaging) using a Zeiss Pascal 5 Exciter confocal microscope.
We use Golgi staining to label neurons sparsely and distinctly, and applied high-resolution confocal imaging to measure dendritic spine density and morphology in the labelled cells, restricting analysis to layer 5 pyramidal neurons in sections of motor cortex from critical period mice (P28).
While low-magnification imaging clearly delineates the extent of the dendrites of the pyramidal cells we use higher magnifications to count synaptic contacts and determine the morphological class of each spine. We classify spines as either large and bulbous (“mushroom”, M), short and stubby (“stubby”, S), short and thin (“thin”, T) or filopodia (F).

[3] = test system: ChAT-positive neurons in the striatum of 18-month old rats; experiment: ChAT immunohistochemistry in striatum of aging rats; assay type: in vivo, rat; conditions: single s.c. dose 0.012-12 mg/kg, 3 days after treatment
Procedure: In this experiment, we tested the effects of G-2-MePE on the number of ChAT-positive neurons in brains of 18-month old rats.
Eighteen-month old male rats received one of five treatments. A control group was treated with vehicle (saline alone (n=4) and four groups were treated with a single dose of G-2-MePE. Doses of 0.012 (n=4), 0.12 (n=5), 1.2 (ln=5) and 12 mg/kg (n=3), respectively, were given sub-cutaneously. Rats were sacrificed with an overdose of pentobarbital 3 days after drug treatment. Brains were perfused with normal saline and 4% paraformaldehyde and fixed in perfusion fixative overnight. Brains were stored in 25% sucrose in 0.1M PBS (pH7.4) until the tissue sank. Frozen coronal sections of striatum were cut with a microtome and stored in 0.1% sodium azide in 0.1M PBS at 4° C. Immunoreactivity for choline acetyltransferase (ChAT) was established by staining using a free floating section method. Briefly, antibodies were diluted in 1% goat serum. The sections were incubated in 0.2% triton in 0.1M PBS/Triton™ at 4° C. overnight before Immunohistochemical staining. The sections were pre-treated with 1% H2O2 in 50% methanol for 20 min. […]
The size of the striatal region used for the count was measured using an image analyser. […]
Data were analysed using a paired t-test and presented as mean+/−SEM.

MeCP2-/y mice [4] = experiment: Life span of MeCP2-/y mice (Example 10); assay type: in vivo, mouse; conditions: 20 mg/kg i.p. daily; compared to MeCP2 KO littermates
Procedure: For the survival measurements, the nocturnal activity analysis and the immunoblot analysis, G-2-MePE (synthesised Albany Molecular Research Inc. (Albany, N.Y.) and supplied by Neuren Pharmaceuticals Limited) is administered daily via intra-peritoneal injections (20 mg/kg, vehicle=saline, 0.01% BSA). The treatment starts at PI 5 and is maintained throughout the course of the experiments. For intracellular physiology experiments, the mice are injected daily with G-2-MePE (20 mg/kg body weight, vehicle=saline, 0.01% BSA) for 2 weeks, from P15 to P28-P32 when they are used for acute slice preparation. For optical imaging experiments, mice are injected with G-2-MePE (20 mg/kg body weight, vehicle=saline, 0.01% BSA) daily from the day of the lid suture to the day of imaging.
To test whether G-2-MePE treatment will impact the development of cardinal features of the RTT disease, 2 week old mutant animals are given daily intra-peritoneal injections for the course of their lifespan. Measurements of synaptic physiology, synaptic molecular composition, and cortical plasticity are then acquired as detailed below, along with health-related measurements such as heart rate, locomotor activity levels, and lifespan.

C[C@@]1(C(=O)N[C@@H](CCC(=O)O)C(=O)O)CCCN1C(=O)CN [Example G-2-MePE, Glycyl-L-2-methylprolyl-L-glutamic acid] (H-Gly-[αMeP]-Glu-OH)
survival (MeCP2 deficient mice): increased substantially | occurrence of irregular heart rate with a lower average rate (MeCP2-/y mice [1]): significantly reduced | density of spines per unit branch [2]: largely ameliorated | number of ChAT-immunopositive neurons [3]: increased | increase in life expectancy (0.5 probability survival rate) (MeCP2-/y mice [4]): ~50%
